Data reported in article PMC11012829 (International Journal of Nanomedicine, 2024).

Tests used:
P-gp = conditions: cited from earlier work
[1] = format: in vivo, male Sprague-Dawley rats; conditions: oral, rats; for bioavailability after N-XBSD administration compared to the free drugs: same administration concentration

SMILES | P-gp substrate (P-gp) | mean AUC0-t increased in the N-XBSD group compared to the free drugs ([1]; N-XBSD vs free drugs) | bioavailability after N-XBSD administration compared to the free drugs [1] | mean AUC0-t in the N-XBSD group versus free drugs group ([1]; p<0.05)
OC[C@H]1O[C@@H](Oc2cc(O)cc(/C=C/c3ccc(O[C@@H]4O[C@H](CO)[C@@H](O)[C@H](O)[C@H]4O)cc3O)c2)[C@H](O)[C@@H](O)[C@@H]1O [Mulberroside A, mulberroside A] | substrates of P-gp | 122.73% | significantly higher | –
O=C1C[C@@H](c2ccc(O[C@@H]3O[C@H](CO)[C@@H](O)[C@H](O)[C@H]3O)cc2)Oc2cc(O)ccc21 [Liquiritin, liquiritin] | substrates of P-gp | – | significantly higher | significantly higher
